Experimental data taken from patent US20090233975A1, “Hair resiliency/body improver and hair cosmetic” (priority 2005, published 2009).

System: KAP5.1 gene
Assay: KAP5.1 reporter assay (dual luciferase, pGL3-KAP5.1 in IORS cells)
Type: cell-based, human
Conditions: overnight culture, negative control K-SFM(−) = 100
Procedure: A DNA fragment of about 15 kb containing KAP5.1 gene and KAP5.2 gene was amplified by PCR using an NM-F1 primer (SEQ ID NO. 6), in which the recognition sites of restriction endonuclease NotI and MluI were added to the 5′-terminal thereof, and an R2 primer (SEQ ID NO. 7), and using commercially available human genomic DNA (obtained from Promega) as the template (FIG. 1-A).
The amplified DNA fragment was double-digested with restriction endonucleases MluI and NheI, and a DNA fragment of about 4.9 kb was recovered following separation by agarose gel electrophoresis. This DNA fragment was cloned between the MluI and NheI sites of reporter vector pGL-3basic (obtained from Promega) having a gene that encodes firefly luciferase (FIG. 1-B). Reporter plasmid pGL-3-KAP5.1 containing the 5′ upstream region (SEQ ID NO. 8) of KAP5.1 was then constructed by subcloning [Step 1: subcloning of SacI/NcoI fragment (154 bp, FIG. 2) to pGL-3basic; Step 2: insertion of ScaI fragment (about 4.0 kbp, FIG. 2) into resulting plasmid] (FIG. 2).
8×10^5 immortalized outer root sheath (IORS) cells (obtained in accordance with Japanese Unexamined Patent Publication (Kokai) No. 2000-89) were seeded into a 75 cm^2 flask and cultured for 6 days under conditions of 37° C. and 5% CO2. Keratinocyte-SFM medium (Gibco) was used as the medium.
Day 1: Plasmid DNA Transfection (transient). The cultured IORS cells were dually transformed with the previously constructed reporter plasmid pGL3-KAP5.1 (firefly luciferase) and commercially available internal standard plasmid pRL-TK (renilla luciferase) in accordance with the manual provided with Effectene Transfection Reagent (Qiagen).
Day 2: The transformed cells were re-seeded into in a 24-well multiwell plate at 10 to 16×10^4 cells per well and cultured overnight under conditions of 37° C. and 5% CO2.
Day 3: The medium in each well was replaced with a basal medium in which each drug was dissolved followed by culturing overnight under conditions of 37° C. and 5% CO2.
Day 4: Assay. Luciferase activity was assayed for each well using the Dual-Luciferase Reporter Assay System (Promega) in accordance with the manual provided by the manufacturer. The AutoLumat LB953 (Berthold) was used for the luminometer.
An assay was carried out under the same conditions with the exception of not containing drug as a negative control [K-SFM(−)]. The effect of increasing gene expression are represented in the form of the rate of increase (ratio based on a value of 100 for the negative control).

SMILES: CC(=O)Nc1cc(C)on1 [3-acetamido-5-methylisoxazole]
- Rate of Increase (KAP5.1 gene expression, ratio based on a value of 100 for the negative control) (10 ppm drug): 100
- Rate of Increase (KAP5.1 gene expression, ratio based on a value of 100 for the negative control) (100 ppm drug): 110
- Rate of Increase (KAP5.1 gene expression, ratio based on a value of 100 for the negative control) (300 ppm drug): 125

SMILES: CC(=O)Nc1nc(C)cs1 [2-acetamido-4-methylthiazole]
- Rate of Increase (KAP5.1 gene expression, ratio based on a value of 100 for the negative control) (10 ppm drug): 110
- Rate of Increase (KAP5.1 gene expression, ratio based on a value of 100 for the negative control) (100 ppm drug): 150

SMILES: Cc1cc(N)no1 [3-amino-5-methylisoxazole]
- Rate of Increase (KAP5.1 gene expression, ratio based on a value of 100 for the negative control) (10 ppm drug): 120
- Rate of Increase (KAP5.1 gene expression, ratio based on a value of 100 for the negative control) (100 ppm drug): 140
- Rate of Increase (KAP5.1 gene expression, ratio based on a value of 100 for the negative control) (300 ppm drug): 160

SMILES: Nc1nccs1 [2-aminothiazole]
- Rate of Increase (KAP5.1 gene expression, ratio based on a value of 100 for the negative control) (10 ppm drug): 110
- Rate of Increase (KAP5.1 gene expression, ratio based on a value of 100 for the negative control) (100 ppm drug): 140

SMILES: CC(=O)Nc1nccs1 [2-acetamidothiazole]
- Rate of Increase (KAP5.1 gene expression, ratio based on a value of 100 for the negative control) (10 ppm drug): 130
- Rate of Increase (KAP5.1 gene expression, ratio based on a value of 100 for the negative control) (100 ppm drug): 180
